Values belong to the compound of their own block, whether it stands above or below them.
Experiments:
Type in all cases: physicochemical
[1] = Particle size analysis of micronized product, laser diffraction (Sympatec HELOS/RODOS, dry dispersion); settings: micronized twice, air jet mill; dry dispersion at 4 bar
Description: The instrumental set-up for particle size analysis: • Laser diffraction pattern analyzer (Sympatec HELOS, H1970 & RODOS, R3:0.5/0.9 . . . 175 μm), 100 mm focal length, • Dry dispersion (RODOS) at 4 bar, • Mathematical model (LD 5.9.0.0)-Sympatec Code, basis Fraunhofer Diffraction

[2] = Hygroscopicity classification applying the Pharmacopeia rules
Description: The shear cell was fully filled with a sample of powder of the compound of formula (I) thereby preventing condensing the powder. Both samples, sample 1 and sample 2, were classified as non-hydroscopic applying the Pharmacopeia rules.

[3] = Determination of bulk density during shear tests; settings: during shear test, normal stress 1.5 kPa
Experimental: Because of the normal stress of 1.5 kPa applied on the top of the lid during the shear test the lid lowers into the shear cell and compresses the powder.
During the shear tests this lowering of the lid is measured and recorded. Since the volume of the bottom ring is known and weight of the sample measured before the beginning of the shear test the bulk density of the sample during the shear test is calculated
[formula] • with: • ρb,shear: Bulk density under shear • mges: total mass of shear cell including powder sample (w/o lid) • mcell: net mass of shear cell (w/o powder sample, w/o lid) • hc: height of the bottom ring • hl: lowering of lid • Acell: bottom area of shear cell
The calculation of the bulk density is done automatically with the evaluation software provided together with the shear tester.

[4] = Particle size distribution by laser diffraction (Malvern Panalytical Mastersizer 3000, Fraunhofer)
Experimental: The particle size distribution was measured by laser diffraction using the Malvern Panalytical Mastersizer 3000.
The samples are again taken from example 1.6 (probe 1) and example 1.5 (probe 2), the same as used in example 4.
The sample to be analyzed is dispersed in 1 drop of Tween 80 the sample is processed according to ISO13320.
Laser diffraction is an often-used method for determination the particle size of dispersed solid materials. A widened laser beam illuminates a cuvette which contains part of the particles. By diffraction on the particles a characteristic pattern can be mapped on the detector. The resulting diffraction image is the additive overlaying of diffraction images of all particles.
Besides the mentioned detector two additional detectors are mounted in order to detect diffraction light in forward direction (FA1,9), in wide angle (LA1,2) and in back direction (BS1,2). The turbidity of the sample is measured by an extinction sensor. This is necessary to ensure a low particle concentration which is necessary to avoid wrong results by multiple diffraction of light at several particles.
The cuvette used was a wet unit where the suspension is pumped in a closed circuit with a dispersing unit that ensures a separation of single particles by shear forces.
The measurement range of the Malvern 3000 covers a particle size from 1 mm (2 mm) down to 20 nm
The calculation of the particle size distribution from the diffraction patterns was done on basis of theory of Fraunhofer.
This assumption is valid for particle sizes of 10 to 50 μm and above. For smaller particles the light scattering of the particle itself due to optical transparency must be considered which is done in the Mie-theory (not used for our probes). Precondition of the application of the Mie-theory is the knowledge of the refractive and absorption index of the dispersed solids.
Q3 is the cumulative volume distribution, e.g. D50=Q(50%) indicates 50% of the volume part of the sample is smaller than particle size of 50 μm.
The particle size is expressed as an equivalent diameter used in the method recommended by the Malvern Analysis Program and as described in ISO13320.

[5] = without ultrasound (US), listed as Probe 1

Particle Size distribution X10 [1]: 1.2 μm | Particle Size distribution X50 [1]: 4 μm | Particle Size distribution X90 [1]: 10 μm
Structure (SMILES): C[C@@H]1OC(=O)NN=C1c1ccc(-c2ccc(F)cc2)c(C(F)(F)F)c1 [micronized product, (6S)-5-[4′-fluoro-2-(trifluoromethyl)[biphenyl]-4-yl]-6-methyl-3,6-dihydro-2H-1,3,4-oxadiazin-2-one]

hygroscopicity classification [2]: non-hydroscopic | bulk density [3]: 270 kg/m^3 | difference between Q3[50] of untreated sample and sample treated 300 s with ultrasound [4]: large | D(10) ([4]; 300 s US, listed as Probe 1): 4.02 μm | D(50) ([4]; 300 s US, listed as Probe 1): 44 μm | D(90) ([4]; 300 s US, listed as Probe 1): 128 μm | amount of fines ([4]; after US treatment of 300 s, compared to polymorph C): significantly larger | Cumulative volume distribution Q ([4]; particle size D 0.01 μm, 300 s US): 0% | Cumulative volume distribution Q ([4]; particle size D 0.01 μm, without US): 0% | Cumulative volume distribution Q ([4]; particle size D 0.0114 μm, 300 s US): 0% | Cumulative volume distribution Q ([4]; particle size D 0.0114 μm, without US): 0% | Cumulative volume distribution Q ([4]; particle size D 0.0129 μm, 300 s US): 0% | Cumulative volume distribution Q ([4]; particle size D 0.0129 μm, without US): 0% | Cumulative volume distribution Q ([4]; particle size D 0.0147 μm, 300 s US): 0% | Cumulative volume distribution Q ([4]; particle size D 0.0147 μm, without US): 0% | Cumulative volume distribution Q ([4]; particle size D 0.0167 μm, 300 s US): 0% | Cumulative volume distribution Q ([4]; particle size D 0.0167 μm, without US): 0% | Cumulative volume distribution Q ([4]; particle size D 0.0189 μm, 300 s US): 0% | Cumulative volume distribution Q ([4]; particle size D 0.0189 μm, without US): 0% | Cumulative volume distribution Q ([4]; particle size D 0.0215 μm, 300 s US): 0% | Cumulative volume distribution Q ([4]; particle size D 0.0215 μm, without US): 0% | Cumulative volume distribution Q ([4]; particle size D 0.0244 μm, 300 s US): 0% | Cumulative volume distribution Q ([4]; particle size D 0.0244 μm, without US): 0% | Cumulative volume distribution Q ([4]; particle size D 0.0278 μm, 300 s US): 0% | Cumulative volume distribution Q ([4]; particle size D 0.0278 μm, without US): 0% | Cumulative volume distribution Q ([4]; particle size D 0.0315 μm, 300 s US): 0% | Cumulative volume distribution Q ([4]; particle size D 0.0315 μm, without US): 0% | Cumulative volume distribution Q ([4]; particle size D 0.0358 μm, 300 s US): 0% | Cumulative volume distribution Q ([4]; particle size D 0.0358 μm, without US): 0% | Cumulative volume distribution Q ([4]; particle size D 0.0407 μm, 300 s US): 0% | Cumulative volume distribution Q ([4]; particle size D 0.0407 μm, without US): 0% | Cumulative volume distribution Q ([4]; particle size D 756 μm, 300 s US): 100% | Cumulative volume distribution Q ([4]; particle size D 756 μm, without US, listed as Probe 1): 92.34% | Cumulative volume distribution Q ([4]; particle size D 859 μm, 300 s US): 100% | Cumulative volume distribution Q ([4]; particle size D 859 μm, without US, listed as Probe 1): 96.59% | Cumulative volume distribution Q ([4]; particle size D 976 μm, 300 s US): 100% | Cumulative volume distribution Q ([4]; particle size D 976 μm, without US, listed as Probe 1): 99.14% | Cumulative volume distribution Q ([4]; particle size D 1110 μm, 300 s US): 100% | Cumulative volume distribution Q ([4]; particle size D 1110 μm, without US): 100% | Cumulative volume distribution Q ([4]; particle size D 1260 μm, 300 s US): 100% | Cumulative volume distribution Q ([4]; particle size D 1260 μm, without US): 100% | Cumulative volume distribution Q ([4]; particle size D 1430 μm, 300 s US): 100% | Cumulative volume distribution Q ([4]; particle size D 1430 μm, without US): 100% | Cumulative volume distribution Q ([4]; particle size D 1630 μm, 300 s US): 100% | Cumulative volume distribution Q ([4]; particle size D 1630 μm, without US): 100% | Cumulative volume distribution Q ([4]; particle size D 1850 μm, 300 s US): 100% | Cumulative volume distribution Q ([4]; particle size D 1850 μm, without US): 100% | Cumulative volume distribution Q ([4]; particle size D 2100 μm, 300 s US): 100% | Cumulative volume distribution Q ([4]; particle size D 2100 μm, without US): 100% | Cumulative volume distribution Q ([4]; particle size D 2390 μm, 300 s US): 100% | Cumulative volume distribution Q ([4]; particle size D 2390 μm, without US): 100% | Cumulative volume distribution Q ([4]; particle size D 2710 μm, 300 s US): 100% | Cumulative volume distribution Q ([4]; particle size D 2710 μm, without US): 100% | Cumulative volume distribution Q ([4]; particle size D 3080 μm, 300 s US): 100% | Cumulative volume distribution Q ([4]; particle size D 3080 μm, without US): 100% | Cumulative volume distribution Q ([4]; particle size D 3500 μm, 300 s US): 100% | Cumulative volume distribution Q ([4]; particle size D 3500 μm, without US): 100% | D(10) [4, 5]: 165 μm | D(50) [4, 5]: 404 μm | D(90) [4, 5]: 720 μm
Structure (SMILES): C[C@@H]1OC(=O)NN=C1c1ccc(-c2ccc(F)cc2)c(C(F)(F)F)c1 [polymorph A, (6S)-5-[4′-Fluoro-2-(trifluoromethyl)biphenyl-4-yl]-6-methyl-3,6-dihydro-2H-1,3,4-oxadiazin-2-one]
particle size distribution compared to polymorph C ([4]; after ultrasound treatment): significantly smaller particle size and broader distribution | particle size distribution compared to polymorph C ([4]; without ultrasound treatment): significantly broader particle size distribution and larger particles
